Results on 38 compounds are retold here after patent US12605353B2, “PDIA4 inhibitors and use thereof for inhibiting β-cell pathogenesis and treating diabetes” (Academia Sinica, priority 2019, dated 2026).

For the first data set, the system named is Min6 cells. The data set is described as follows: Glucose-stimulated insulin secretion in Min6 cells (insulin ELISA). Particulars: Min6, a mouse β-cells; read-out: EC50 values, insulin-releasing action. Format: cell-based, mouse. How it is done:
(§1) (A) Effect of drug candidates on insulin secretion in β-cells. Min6 cells were incubated in serum-free oxygen-saturated Krebs-Ringer bicarbonate (KRB) buffer containing high glucose (16.7 mM), CCF642 and drug candidates for 30 min. The supernatants were collected for insulin ELISA assay. (B) Min6 cells were incubated with PBS, CCF642 and drug candidates, respectively, for 24 h. Following PBS washing, WST-1 was added into each well for additional 20 min incubation.
Min6 cells were grown in complete Dulbecco's modified Eagle medium (DMEM) medium containing 10% fetal bovine serum, 100 units/ml penicillin and 100 µg/ml streptomycin in a 5% CO2 incubator in the presence of 3.3 mM glucose unless indicated otherwise. Min6 cells were pre-incubated in serum-free oxygen-saturated Krebs-Ringer bicarbonate (KRB) buffer containing 3.3 mM glucose at 37° C. for 30 min. The cells (7.5×10^4) were then incubated with KRB buffer containing high glucose (16.7 mM) or low glucose (3.3 mM) for an additional 30 min. The supernatants were collected for insulin ELISA assay.
As for `C#CC(=O)Nc1cc(OC)c(OCCCN(C(=O)C#C)C(=O)Cc2ccccc2C(F)(F)F)cc1C(=O)OC` [58s, methyl 4-methoxy-2-propiolamido-5-(3-(N-(2-(2-(trifluoromethyl)phenyl)acetyl)propiolamido)propoxy)benzoate], the EC50 was 0.03 µM.

The same data set, now with this note: Min6 β-cells.
Turning to `C#CC(=O)Nc1cc(OC)c(OCCCN(C(=O)C#C)C(=O)Cc2ccccc2C(F)(F)F)cc1C(=O)OC` [58s, methyl 4-methoxy-2-propiolamido-5-(3-(N-(2-(2-(trifluoromethyl)phenyl)acetyl)propiolamido)propoxy)benzoate], the “insulin secretion in β-cells, in words” value is “could augment insulin secretion”.

The same data set, now with this note: Mus musculus, 0.5 h; Table 5; insulin secretion, Min6 cells, high glucose (16.7 mM), 30 min; read-out: EC50.
In the case of `C#CC(=O)Nc1cc(OC)c(OCCCN(C(=O)C#C)C(=O)Cc2ccccc2C(F)(F)F)cc1C(=O)OC` [58s, methyl 4-methoxy-2-propiolamido-5-(3-(N-(2-(2-(trifluoromethyl)phenyl)acetyl)propiolamido)propoxy)benzoate], the half-maximal effective concentration (EC50) was found to be 0.02 µM.

Tested on in a further data set: not listed separately
In words: Cell viability test (WST-1) in Min6 cells. Particulars: mouse, Table 5, 24 h, WST-1, read-out: CC50. Format: cell-based, mouse. How it is done: as §1
Min6 cells were cultured at 37° C. in complete medium. Cell cytotoxicity was determined using WST-1 (4-[3-(4-Iodophenyl)-2-(4-nitrophenyl)-2H-5-tetrazolio]-1,3-benzene Disulfonate) according to the manutkturet's guidelines. Briefly, the cells were grown in a […] containing complete medium in the presence of the indicated compounds for 24 h. Following PBS washing, WST-1 was added into each well for additional 20 min incubation. After removing the medium, the cells in the plate were measured with a SpectraMax i3x reader at 450 nm.
For the compound `C#CC(=O)Nc1cc(OC)c(OCCCN(C(=O)C#C)C(=O)Cc2ccccc2C(F)(F)F)cc1C(=O)OC` [58s, methyl 4-methoxy-2-propiolamido-5-(3-(N-(2-(2-(trifluoromethyl)phenyl)acetyl)propiolamido)propoxy)benzoate], the CC50 at 24 h came out at 64.9 µM.

The data set is the same for the next values; noted with them: mouse, read-out: CC50 values.
Consider `C#CC(=O)Nc1cc(OC)c(OCCCN(C(=O)C#C)C(=O)Cc2ccccc2C(F)(F)F)cc1C(=O)OC` [58s, methyl 4-methoxy-2-propiolamido-5-(3-(N-(2-(2-(trifluoromethyl)phenyl)acetyl)propiolamido)propoxy)benzoate], for which the CC50 at 24 h was over 100 µM.

In a further data set the target is T1, PDIA4 (Homo sapiens, UniProt P13667).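 Further: enzymatic activity of PDIA4 read as absorbance at 595 nm, inhibition given as percent decrease relative to vehicle-treated control.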
T1 sequence (P13667 21-645): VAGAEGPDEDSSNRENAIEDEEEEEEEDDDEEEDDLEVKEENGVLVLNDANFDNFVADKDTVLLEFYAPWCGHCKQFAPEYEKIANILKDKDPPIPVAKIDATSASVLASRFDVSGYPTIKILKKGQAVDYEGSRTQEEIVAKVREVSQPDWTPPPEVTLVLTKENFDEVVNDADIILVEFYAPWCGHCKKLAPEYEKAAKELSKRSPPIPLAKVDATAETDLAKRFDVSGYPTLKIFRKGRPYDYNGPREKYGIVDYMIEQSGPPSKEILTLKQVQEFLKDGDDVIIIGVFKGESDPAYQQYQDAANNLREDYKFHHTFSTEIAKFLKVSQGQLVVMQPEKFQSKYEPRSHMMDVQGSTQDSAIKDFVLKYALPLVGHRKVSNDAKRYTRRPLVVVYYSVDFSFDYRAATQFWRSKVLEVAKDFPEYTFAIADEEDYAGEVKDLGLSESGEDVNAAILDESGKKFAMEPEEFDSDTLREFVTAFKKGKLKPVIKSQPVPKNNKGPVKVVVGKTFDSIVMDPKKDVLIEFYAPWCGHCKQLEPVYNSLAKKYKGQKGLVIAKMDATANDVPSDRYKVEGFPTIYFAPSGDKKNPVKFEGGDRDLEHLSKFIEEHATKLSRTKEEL
In words: biochemical.
Conditions: not given
Compound `C#CC(=O)Nc1cc(OC)c(OCCCN2C(=O)c3ccccc3C2=O)cc1C(=O)OC` [50b, methyl 5-(3-(1,3-dioxoisoindolin-2-yl)propoxy)-4-methoxy-2-propiolamidobenzoate] displayed an IC50 of 4.3 µM.

Compound `C#CC(=O)Nc1cc(OC)c(OCCCN(C(=O)C#C)C(=O)c2ccccc2F)cc1C(=O)OC` [58b, methyl 5-(3-(2-fluoro-N-propioloylbenzamido)propoxy)-4-methoxy-propiolamidobenzoate] yielded an IC50 of 4.2 µM. The IC50 values of the last two compounds are within 1.5-fold of each other.

On to `C#CC(=O)Nc1cc(OC)c(OCCCN(C(=O)C#C)C(=O)c2ccc(F)cc2)cc1C(=O)OC` [58d, methyl 5-(3-(4-fluoro-N-propioloylbenzamido)propoxy)-4-methoxy-2-propiolamidobenzoate], for which inhibition was half-maximal at 2.4 µM (IC50).

`C#CC(=O)Nc1cc(OC)c(OCCCN(C(=O)C#C)C(=O)c2cccc(OC)c2)cc1C(=O)OC` [58g] displayed an IC50 of 3.3 µM.

With `C#CC(=O)Nc1cc(OC)c(OCCCN(C(=O)C#C)C(=O)Cc2ccccc2)cc1C(=O)OC` [58i, methyl 4-methoxy-5-(3-(N-(2-phenylacetyl)propiolamido)propoxy)-2-propiolamidobenzoate], the IC50 is 1.9 µM.

Compound `C#CC(=O)Nc1cc(OC)c(OCCCN(C(=O)C#C)C(=O)Cc2ccc(F)cc2)cc1C(=O)OC` [58l] came in with an IC50 of 1.4 µM.

The compound `C#CC(=O)Nc1cc(OC)c(OCCCN(C(=O)C#C)C(=O)Cc2cccc(OC)c2)cc1C(=O)OC` [58n, methyl 4-methoxy-5-(3-(N-(2-(3-methoxyphenyl)acetyl)propiolamido)propoxy)-2-propiolamidobenzoate] yielded an IC50 of 1.4 µM.

`C#CC(=O)Nc1cc(OC)c(OCCCN(C(=O)C#C)C(=O)Cc2ccc(OC)cc2)cc1C(=O)OC` [58o, methyl 4-methoxy-5-(3-(N-(2-(4-methoxyphenyl)acetyl)propiolamido)propoxy)-2-propiolamidobenzoate] showed an IC50 of 2.1 µM. Against the preceding compound, the IC50 is about 1.5-fold higher.

With `C#CC(=O)Nc1cc(OC)c(OCCCN(C(=O)C#C)C(=O)Cc2cccc(Cl)c2)cc1C(=O)OC` [58r, methyl 5-(3-(N-(2-(3-chlorophenyl)acetyl)propiolamido)propoxy)-4-methoxy-2-propiolamidobenzoate], half-maximal inhibition (IC50) was put at 1.6 µM.

`CC#CC#C/C=C1/C=CC(=O)O1` [C2, (Z)-5-(hexa-2,4-diyn-1-ylidene)furan-2(5H)-one] showed an IC50 of 96.5 µM. This IC50 lies about 60-fold higher than the previous one.

Compound `C#CC(=O)N(c1ccc(OC)cc1OC)C(C(=O)NCC(=O)OCC)c1cccs1` (stereo not drawn) [C5, ethyl (2-(N-(2,4-dimethoxyphenyl)propiolamido)-2-(thiophen-2-yl)acetyl)glycinate] had an IC50 of 760 µM.

Consider `CC#CC#C/C=C1\C=CC2(OC=CC2OC(=O)C=C(C)C)O1` (stereo not drawn) [C6, (E)-7-(hexa-2,4-diyn-1-ylidene)-1,6-dioxaspiro[4,4]nona-2,8-dien-4-yl 3-methylbut-2-enoate], for which inhibition was half-maximal at 753 µM (IC50).

`OCC#CC(O)c1ccccc1` (stereo not drawn) [C7, 1-phenylbut-2-yne-1,4-diol] registered an IC50 of over 1000 µM.

In the case of `CC#CCNc1ccc(NC(C)=O)cc1` [C8, N-(4-(but-2-yn-1-ylamino)phenyl)acetamide], the IC50 was over 1000 µM.

As to `O=C(Cc1ccccc1)OCC#CC#CCOC(=O)Cc1ccccc1` [C9, hexa-2,4-diyne-1,6-diyl bis(2-phenylacetate)], the IC50 was over 1000 µM.

`O=C(OCC#CC#CCOC(=O)c1ccccc1)c1ccccc1` [C10, hexa-2,4-diyne-1,6-diyl dibenzoate] had an IC50 of over 1000 µM.

For the compound `C#CC(=O)Nc1ccc(C(=O)NCC(=O)O)cc1` [C11, (4-propiolamidobenzoyl)glycine], half-maximal inhibition (IC50) required 27.6 µM. In other words, the double-digit micromolar range.

Consider `C#CC(=O)Nc1ccc(CC(=O)O)cc1` [C12, 2-(4-propiolamidophenyl)acetic acid], for which half-maximal inhibition (IC50) required 92.1 µM.

The compound `C#CC(=O)Nc1ccc(O)c(C(=O)O)c1` [C14, 2-hydroxy-5-propiolamidobenzoic acid] returned an IC50 of 55.7 µM. This IC50 lies about 1.7-fold lower than the previous one.

Compound `CC#CC#CC#CC#CCCC(O)CO` (stereo not drawn) [CPD P2, cytopiloyne aglycone, reference compound] had an IC50 of 168 µM. Compared with the last compound, the IC50 is about 3-fold higher.

The compound `COC(=O)c1cc(OC)c(OC)cc1N` [compound 3, methyl 2-amino-4,5-dimethoxybenzoate] displayed an IC50 of over 1000 µM.

`C#CC(=O)Nc1cc(OC)c(OC)cc1C(=O)OCC[Si](C)(C)C` [compound 7, 2-(trimethylsilyl)ethyl 4,5-dimethoxy-2-propiolamidobenzoate] came in with an IC50 of 78.7 µM.

As to `COc1cc(N)c(C(=O)O)cc1OC` [compound 9, 2-amino-4,5-dimethoxybenzoic acid], the IC50 is over 1000 µM.

`C#CC(=O)OC(=O)c1cc(OC)c(OC)cc1N` [compound 10, 2-amino-4,5-dimethoxybenzoic propiolic anhydride] displayed an IC50 of 1.6 µM.

`C#CC(=O)OC(=O)c1cc(OCc2ccccc2)c(OC)cc1N` [compound 16, 2-amino-5-(benzyloxy)-4-methoxybenzoic propiolic anhydride] came in with an IC50 of 13.3 µM.

Turning to `COC(=O)c1cc(OC)c(OC)c(OC)c1N` [compound 19, methyl 2-amino-3,4,5-trimethoxybenzoate], the IC50 was over 1000 µM.

`C#CC(=O)Nc1c(C(=O)OC)cc(OC)c(OC)c1OC` [compound 20, methyl 3,4,5-trimethoxy-2-propiolamidobenzoate] returned an IC50 of 42.5 µM.

Regarding `COc1cc(C(=O)O)c(N)c(OC)c1OC` [compound 21, 2-amino-3,4,5-trimethoxybenzoic acid], the IC50 was over 1000 µM.

For the compound `C#CC(=O)OC(=O)c1cc(OC)c(OC)c(OC)c1N` [compound 22, 2-amino-3,4,5-trimethoxybenzoic propiolic anhydride], the IC50 came out at 4.3 µM. This counts as single-digit micromolar.

The compound `C#CC(=O)Nc1cc(OCCC)c(OCCC)cc1C(=O)OC` [compound 29, methyl 2-propiolamido-4,5-dipropoxybenzoate] yielded an IC50 of over 300 µM.

`C#CC(=O)Nc1cc(OCCC)c(OCCC)cc1C(=O)OCCC` [compound 30, propyl 2-propiolamido-4,5-dipropoxybenzoate] returned an IC50 of over 300 µM.

As for `C#CC(=O)Nc1cc(OC)c(OCCCN(C(=O)C#C)C(=O)c2ccccc2)cc1C(=O)O` [compound 40, 4-methoxy-2-propiolamido-5-(3-(N-propioloylbenzamido)propoxy)benzoic acid], the IC50 came to 3.9 µM.

As for `C#CC(=O)Nc1cc(OC)c(OCCC)cc1C(=O)OCCC` [compound 43, propyl 4-methoxy-2-propiolamido-5-propoxybenzoate], it took 431 µM to reach half-maximal inhibition (IC50). This IC50 lies about 110-fold higher than the previous one.

Take `CCCOc1cc(C(=O)O)c(N)cc1OC` [compound 44, 2-amino-4-methoxy-5-propoxybenzoic acid]: the half-inhibitory concentration (IC50) is over 1000 µM.

Compound `C#CC(=O)OC(=O)c1cc(OCCC)c(OC)cc1N` [compound 45, 2-amino-4-methoxy-5-propoxybenzoic propiolic anhydride] registered an IC50 of 1 µM.

`COC(=O)c1cc(OCCCN)c(OC)cc1[N+](=O)[O-]` [compound 55, methyl 5-(3-aminopropoxy)-4-methoxy-2-nitrobenzoate] registered an IC50 of over 1000 µM.

As to `C#CC(=O)Nc1cc(OC)c(OCCCNC(=O)OC(C)(C)C)cc1C(=O)OC` [compound 61, Methyl 5-(3-((tert-butoxycarbonyl)amino)propoxy)-4-methoxy-2-propiolamidobenzoate], 4.7 µM corresponded to half-maximal inhibition (IC50).
